Patent US9242987B2, “Heterocyclyl pyrazolopyrimidine analogues as JAK inhibitors” (Cellzome Limited, priority 2009, dated 2016)
Where a name gives a salt, the structure may show the parent alone.

Columns and labels:
[1] = target: T1, JAK2 (Homo sapiens, UniProt O60674); experiment: Kinobeads assay, JAK2; type: binding; details: mixed Molt4/Ramos cell lysate, dot blot detection
T1 construct: endogenous in cells; host or cells: Mixed Molt4/Ramos lysate (1:2)
Procedure, shortened: (§1)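 Competition pulldown: compound dilution series incubated 3 h in cold room with immobilized aminopyrido-pyrimidine beads and mixed Molt4/Ramos lysate (1:2, 10 mg/mL protein) in DP buffer pH 7.4 with NP40. Bead-bound JAK2/JAK3 eluted, quantified by antibody dot blot with infrared detection; IC50 from dose-response curves.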

[2] = target: T2, JAK3 (Homo sapiens, UniProt P52333); experiment: Kinobeads assay, JAK3; type: binding; details: mixed Molt4/Ramos cell lysate, dot blot detection
T2 construct: endogenous in cells; host or cells: Mixed Molt4/Ramos lysate (1:2)
T2 sequence (P52333 1-1124): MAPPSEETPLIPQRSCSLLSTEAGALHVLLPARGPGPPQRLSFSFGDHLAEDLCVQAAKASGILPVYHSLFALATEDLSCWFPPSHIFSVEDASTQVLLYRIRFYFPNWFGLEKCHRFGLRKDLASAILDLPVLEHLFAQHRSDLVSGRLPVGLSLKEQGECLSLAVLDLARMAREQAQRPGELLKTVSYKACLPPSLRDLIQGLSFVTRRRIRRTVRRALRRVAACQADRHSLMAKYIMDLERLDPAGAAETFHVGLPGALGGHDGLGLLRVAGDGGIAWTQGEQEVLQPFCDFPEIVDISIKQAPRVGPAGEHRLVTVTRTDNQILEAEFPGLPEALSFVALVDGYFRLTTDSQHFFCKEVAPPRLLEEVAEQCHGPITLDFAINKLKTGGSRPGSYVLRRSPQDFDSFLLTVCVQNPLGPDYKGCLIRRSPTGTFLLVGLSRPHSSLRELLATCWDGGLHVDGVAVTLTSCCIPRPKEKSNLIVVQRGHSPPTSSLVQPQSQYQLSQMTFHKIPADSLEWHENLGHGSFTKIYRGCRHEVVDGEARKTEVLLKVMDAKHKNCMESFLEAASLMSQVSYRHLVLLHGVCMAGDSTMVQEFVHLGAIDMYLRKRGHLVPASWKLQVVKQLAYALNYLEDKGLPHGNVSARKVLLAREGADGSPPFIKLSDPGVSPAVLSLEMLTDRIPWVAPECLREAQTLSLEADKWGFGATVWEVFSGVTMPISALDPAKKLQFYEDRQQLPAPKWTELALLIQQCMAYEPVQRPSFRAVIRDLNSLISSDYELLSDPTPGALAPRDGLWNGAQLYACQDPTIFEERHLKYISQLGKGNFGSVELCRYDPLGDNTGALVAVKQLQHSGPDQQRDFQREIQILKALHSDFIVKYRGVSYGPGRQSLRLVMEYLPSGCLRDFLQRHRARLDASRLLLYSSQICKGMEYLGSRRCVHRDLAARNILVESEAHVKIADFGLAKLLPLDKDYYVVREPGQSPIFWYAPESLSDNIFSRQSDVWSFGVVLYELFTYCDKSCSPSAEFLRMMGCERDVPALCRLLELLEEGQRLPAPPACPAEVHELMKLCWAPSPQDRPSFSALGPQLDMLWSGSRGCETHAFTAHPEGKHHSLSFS
Procedure, shortened: as §1

T1 sequence (O60674 whole entry): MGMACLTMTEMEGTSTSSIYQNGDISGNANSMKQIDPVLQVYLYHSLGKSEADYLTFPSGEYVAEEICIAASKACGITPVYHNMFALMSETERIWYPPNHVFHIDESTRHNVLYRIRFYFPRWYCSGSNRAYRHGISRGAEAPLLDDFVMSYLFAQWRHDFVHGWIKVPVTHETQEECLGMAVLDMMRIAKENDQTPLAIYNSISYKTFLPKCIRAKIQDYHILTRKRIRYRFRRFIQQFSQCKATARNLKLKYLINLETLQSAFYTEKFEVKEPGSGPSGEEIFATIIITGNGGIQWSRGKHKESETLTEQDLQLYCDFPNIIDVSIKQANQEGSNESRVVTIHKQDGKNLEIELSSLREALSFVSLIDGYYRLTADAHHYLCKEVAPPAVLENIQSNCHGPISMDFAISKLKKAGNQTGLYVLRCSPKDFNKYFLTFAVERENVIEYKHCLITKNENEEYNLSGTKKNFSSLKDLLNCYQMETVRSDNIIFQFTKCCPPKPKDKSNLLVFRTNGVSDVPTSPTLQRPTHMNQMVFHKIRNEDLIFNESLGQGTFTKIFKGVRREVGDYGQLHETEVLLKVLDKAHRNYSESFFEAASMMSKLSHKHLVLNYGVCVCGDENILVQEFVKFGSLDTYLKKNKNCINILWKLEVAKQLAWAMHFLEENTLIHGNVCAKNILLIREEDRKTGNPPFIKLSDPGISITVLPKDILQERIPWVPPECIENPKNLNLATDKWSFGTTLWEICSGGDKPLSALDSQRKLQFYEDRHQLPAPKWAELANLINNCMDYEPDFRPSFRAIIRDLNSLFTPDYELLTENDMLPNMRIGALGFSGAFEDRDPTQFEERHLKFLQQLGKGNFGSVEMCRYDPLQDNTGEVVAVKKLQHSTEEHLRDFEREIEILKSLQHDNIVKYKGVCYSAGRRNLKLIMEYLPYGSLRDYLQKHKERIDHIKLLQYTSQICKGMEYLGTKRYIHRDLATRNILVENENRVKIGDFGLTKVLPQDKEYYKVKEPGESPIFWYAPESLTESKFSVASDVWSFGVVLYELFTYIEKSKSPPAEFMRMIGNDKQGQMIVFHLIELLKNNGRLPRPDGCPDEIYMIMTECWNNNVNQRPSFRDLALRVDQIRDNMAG

SMILES | IC50 [1] | IC50 [2]
Fc1ccccc1Cn1ncc2cnc(Nc3cnn(CCCN4CCOCC4)c3)nc21 [Example 145, 1-(2-Fluorobenzyl)-N-(1-(3-morpholinopropyl)-1H-pyrazol-4-yl)-1H-pyrazolo[3,4-d]pyrimidin-6-amine] | 100 to 1000 nM | < 100 nM
N#Cc1ccccc1Cn1ncc2cnc(Nc3ccon3)nc21 [Example 8] | ≥ 10000 nM | 1000 to 10000 nM
OCCn1cc(Nc2ncc3cnn(Cc4c(F)c(F)cc(F)c4F)c3n2)cn1 [Example 196, 2-(4-((1-(2,3,5,6-Tetrafluorobenzyl)-1H-pyrazolo[3,4-d]pyrimidin-6-yl)amino)-1H-pyrazol-1-yl)ethanol] | 100 to 1000 nM | < 100 nM
COCCn1cc(Nc2ncc3cnn(Cc4ccccc4C#N)c3n2)cn1 [Example 10, 2-((6-(1-(2-Methoxyethyl)-1H-pyrazol-4-ylamino)-1H-pyrazolo[3,4-d]pyrimidi-1-yl)methyl)benzonitrile] | 100 to 1000 nM | < 100 nM
COc1nn(CC(F)F)cc1Nc1ncc2cnn(Cc3ccccc3C(N)=O)c2n1 [Example 36, 2-((6-(1-(2,2-Difluoroethyl)-3-methoxy-1H-pyrazol-4-ylamino)-1H-pyrazolo[3,4-d]pyrimidin-1-yl)methyl)benzamide] | ≥ 10000 nM | 100 to 1000 nM
Cn1cc(Nc2ncc3cnn(Cc4cccc(OCC5CC5)c4)c3n2)cn1 [Example 172, 1-(3-(Cyclopropylmethoxy)benzyl)-N-(1-methyl-1H-pyrazol-4-yl)-1H-pyrazolo[3,4-d]pyrimidin-6-amine] | ≥ 10000 nM | 100 to 1000 nM
OCCn1cc(Nc2ncc3cnn(Cc4c(F)cccc4F)c3n2)cn1 [Example 73, 2-(4-((1-(2,6-Difluorobenzyl)-1H-pyrazolo[3,4-d]pyrimidin-6-yl)amino)-1H-pyrazol-1-yl)ethanol] | 100 to 1000 nM | < 100 nM
Cn1cc(Nc2ncc3cnn(Cc4ccccc4C(F)(F)F)c3n2)cn1 [Example 65, N-(1-Methyl-1H-pyrazol-4-yl)-1-(2-(trifluoromethyl)benzyl)-1H-pyrazolo[3,4-d]pyrimidin-6-amine] | 1000 to 10000 nM | < 100 nM
Cn1cnc(Nc2ncc3cnn(Cc4ccccc4F)c3n2)c1 [Example 237, 1-(2-Fluorobenzyl)-N-(1-methyl-1H-imidazol-4-yl)-1H-pyrazolo[3,4-d]pyrimidin-6-amine] | ≥ 10000 nM | 100 to 1000 nM
FC(F)Cn1cc(Nc2ncc3cnn(Cc4ccccc4)c3n2)cn1 [Example 118, 1-Benzyl-N-(1-(2,2-difluoroethyl)-1H-pyrazol-4-yl)-1H-pyrazolo[3,4-d]pyrimidin-6-amine] | 1000 to 10000 nM | < 100 nM
Cc1nc(-n2ncc3cnc(Nc4cnn(C)c4)nc32)ccc1NS(C)(=O)=O [Example 55, N-(2-Methyl-6-(6-(1-methyl-1H-pyrazol-4-ylamino)-1H-pyrazolo[3,4-d]pyrimidin-1-yl)pyridin-3-yl)methanesulfonamide] | 1000 to 10000 nM | 100 to 1000 nM
Cn1cc(Nc2ncc3cnn(Cc4ccc(F)cc4F)c3n2)cn1 [Example 47, 1-(2,4-Difluorobenzyl)-N-(1-methyl-1H-pyrazol-4-yl)-1H-pyrazolo[3,4-d]pyrimidin-6-amine] | 1000 to 10000 nM | 100 to 1000 nM
Cn1cc(Nc2ncc3cnn(Cc4ccc(F)c(F)c4)c3n2)cn1 [Example 78, 1-(3,4-Difluorobenzyl)-N-(1-methyl-1H-pyrazol-4-yl)-1H-pyrazolo[3,4-d]pyrimidin-6-amine] | 1000 to 10000 nM | 100 to 1000 nM
Cc1ccc(O)cc1Cn1ncc2cnc(Nc3cnn(C)c3)nc21 [Example 189] | ≥ 10000 nM | 100 to 1000 nM
O=C1CNCCN1c1ccc(F)c(Cn2ncc3cnc(Nc4cnn(CCO)c4)nc32)c1F [Example 302, 1-(2,4-Difluoro-3-((6-((1-(2-hydroxyethyl)-1H-pyrazol-4-yl)amino)-1H-pyrazolo[3,4-d]pyrimidin-1-yl)methyl)phenyl)piperazin-2-one] | 1000 to 10000 nM | < 100 nM
N#CCCn1cc(Nc2ncc3cnn(Cc4ccccc4C#N)c3n2)cn1 [Example 15, 2-((6-(1-(2-Cyanoethyl)-1H-pyrazol-4-ylamino)-1H-pyrazolo[3,4-d]pyrimidin-1-yl)methyl)benzonitrile] | 1000 to 10000 nM | < 100 nM
Cn1cc(Nc2ncc3cnn(-c4cccc(C(=O)N5CCOCC5)c4)c3n2)cn1 [Example 146, (3-(6-((1-Methyl-1H-pyrazol-4-yl)amino)-1H-pyrazolo[3,4-d]pyrimidin-1-yl)phenyl)(morpholino)methanone] | 1000 to 10000 nM | 100 to 1000 nM
CN1CCN(CCCn2cc(Nc3ncc4cnn(Cc5ccccc5F)c4n3)cn2)CC1 [Example 194, 1-(2-Fluorobenzyl)-N-(1-(3-(4-methylpiperazin-1-yl)propyl)-1H-pyrazol-4-yl)-1H-pyrazolo[3,4-d]pyrimidin-6-amine] | ≥ 10000 nM | 100 to 1000 nM
Cn1cc(Nc2ncc3cnn(Cc4ccncc4F)c3n2)cn1 [Example 46, 1-((3-Fluoropyridin-4-yl)methyl)-N-(1-methyl-1H-pyrazol-4-yl)-1H-pyrazolo[3,4-d]pyrimidin-6-amine] | 1000 to 10000 nM | 100 to 1000 nM

More lines, now with the values ahead:

IC50 [1] | IC50 [2] | SMILES
100 to 1000 nM | < 100 nM | CS(=O)(=O)Nc1ccccc1Cn1ncc2cnc(Nc3cnn(CC(F)F)c3)nc21 [Example 131, N-(2-((6-((1-(2,2-Difluoroethyl)-1H-pyrazol-4-yl)amino)-1H-pyrazolo[3,4-d]pyrimidin-1-yl)methyl)phenyl)methanesulfonamide hydrochloride]
100 to 1000 nM | < 100 nM | Fc1ccc(F)c(Cn2ncc3cnc(Nc4cnn(CC(F)F)c4)nc32)c1 [Example 129, 1-(2,5-Difluorobenzyl)-N-(1-(2,2-difluoroethyl)-1H-pyrazol-4-yl)-1H-pyrazolo[3,4-d]pyrimidin-6-amine]
100 to 1000 nM | 100 to 1000 nM | Cn1cc(Nc2ncc3cnn(Cc4ccccc4N4CCOCC4)c3n2)cn1 [Example 180, N-(1-Methyl-1H-pyrazol-4-yl)-1-(2-morpholinobenzyl)-1H-pyrazolo[3,4-d]pyrimidin-6-amine]
≥ 10000 nM | < 100 nM | Cn1cc(Nc2ncc3cnn(Cc4cccc(OCCN5CCCC5=O)c4)c3n2)cn1 [Example 225, 1-(2-(3-((6-((1-Methyl-1H-pyrazol-4-yl)amino)-1H-pyrazolo[3,4-d]pyrimidin-1-yl)methyl)phenoxy)ethyl)pyrrolidin-2-one]
100 to 1000 nM | < 100 nM | CN1CCCC(Cn2cc(Nc3ncc4cnn(Cc5ccccc5F)c4n3)cn2)C1 (stereo not drawn) [Example 192, 1-(2-Fluorobenzyl)-N-(1-((1-methylpiperidin-3-yl)methyl)-1H-pyrazol-4-yl)-1H-pyrazolo[3,4-d]pyrimidin-6-amine]
1000 to 10000 nM | < 100 nM | Cn1cc(Nc2ncc3cnn(Cc4ccccc4NS(=O)(=O)CC(F)(F)F)c3n2)cn1 [Example 134]
1000 to 10000 nM | 100 to 1000 nM | CNS(=O)(=O)c1ccc(-n2ncc3cnc(Nc4cnn(C)c4)nc32)cc1 [Example 40, N-Methyl-4-(6-(1-methyl-1H-pyrazol-4-ylamino)-1H-pyrazolo[3,4-d]pyrimidin-1-yl)benzenesulfonamide]
1000 to 10000 nM | < 100 nM | Fc1cccc(Cn2ncc3cnc(Nc4cnn(CC(F)F)c4)nc32)c1F [Example 155, 1-(2,3-Difluorobenzyl)-N-(1-(2,2-difluoroethyl)-1H-pyrazol-4-yl)-1H-pyrazolo[3,4-d]pyrimidin-6-amine]
100 to 1000 nM | < 100 nM | OCCn1cc(Nc2ncc3cnn(Cc4cccc(F)n4)c3n2)cn1 [Example 314, 2-(4-((1-((6-Fluoropyridin-2-yl)methyl)-1H-pyrazolo[3,4-d]pyrimidin-6-yl)amino)-1H-pyrazol-1-yl)ethanol]
100 to 1000 nM | < 100 nM | Cn1cc(Nc2ncc3cnn(Cc4cccc5c4OCCO5)c3n2)cn1 [Example 229, 1-((2,3-Dihydrobenzo[b][1,4]dioxin-5-yl)methyl)-N-(1-methyl-1H-pyrazol-4-yl)-1H-pyrazolo[3,4-d]pyrimidin-6-amine]
≥ 10000 nM | 100 to 1000 nM | Cn1ccc(Nc2ncc3cnn(Cc4ccccc4C#N)c3n2)n1 [Example 3, 2-((6-(1-Methyl-1H-pyrazol-3-ylamino)-1H-pyrazolo[3,4-d]pyrimidin-1-yl)methyl)benzonitrile]
